Three molecules from patent US11208412B2 (DAEGU-GYEONGBUK MEDICAL INNOVATION FOUNDATION, priority 2017, dated 2021) can be followed below.

Read-outs that look alike come from different tables or passages of the source.

Holding throughout (test): Kinase selectivity, DiscoverX scanMAX Kinase assay panel (% control)
Holding throughout (type): binding

Test [1] deals with T1, kinases of the scanMAX Kinase assay panel (Homo sapiens, UniProt O75582).
T1 construct: purchased DiscoverX Co. (contract measurement) scanMAX Kinase assay panel
T1 sequence (O75582 whole entry): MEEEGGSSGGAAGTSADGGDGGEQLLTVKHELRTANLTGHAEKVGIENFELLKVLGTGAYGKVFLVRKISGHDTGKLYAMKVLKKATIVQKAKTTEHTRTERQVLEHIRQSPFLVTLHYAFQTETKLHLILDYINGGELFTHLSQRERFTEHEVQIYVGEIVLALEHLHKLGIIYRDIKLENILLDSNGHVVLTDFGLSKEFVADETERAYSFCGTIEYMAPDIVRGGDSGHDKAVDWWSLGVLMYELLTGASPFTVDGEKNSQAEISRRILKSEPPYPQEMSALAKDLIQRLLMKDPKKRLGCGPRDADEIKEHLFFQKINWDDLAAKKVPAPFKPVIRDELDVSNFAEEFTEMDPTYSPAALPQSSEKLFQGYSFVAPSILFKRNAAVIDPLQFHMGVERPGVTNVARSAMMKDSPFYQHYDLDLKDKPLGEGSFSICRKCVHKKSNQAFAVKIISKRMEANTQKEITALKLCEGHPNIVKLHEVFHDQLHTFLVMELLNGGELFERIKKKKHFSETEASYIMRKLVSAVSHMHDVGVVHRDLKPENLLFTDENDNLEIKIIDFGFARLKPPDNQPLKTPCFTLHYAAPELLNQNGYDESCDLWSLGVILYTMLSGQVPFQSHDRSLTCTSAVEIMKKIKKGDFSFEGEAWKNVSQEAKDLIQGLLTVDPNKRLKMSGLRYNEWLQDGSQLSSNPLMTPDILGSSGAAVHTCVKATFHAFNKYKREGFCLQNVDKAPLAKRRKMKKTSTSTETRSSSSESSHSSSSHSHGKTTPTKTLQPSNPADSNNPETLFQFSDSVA
Conditions: 1 uM in DMSO. In a few lines: (§1)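 Read-out is % control, normalised so a positive-control compound sits at 0% and DMSO at 100%: (test − positive)/(negative − positive)×100. Each kinase received the compound at 1 uM in DMSO. A value below 35% counts as activity.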

In test [2] the target is T2, kinases of the scanMAX Kinase assay panel (Homo sapiens, UniProt P08581, Y1235D).
T2 construct: purchased DiscoverX Co. (contract measurement) scanMAX Kinase assay panel
Conditions: MET(Y1235D); 1 uM. In a few lines: as §1

For test [3], the target named is T3, kinases of the scanMAX Kinase assay panel (Homo sapiens, UniProt P12931).
T3 construct: purchased DiscoverX Co. (contract measurement) scanMAX Kinase assay panel
T3 sequence (P12931 whole entry): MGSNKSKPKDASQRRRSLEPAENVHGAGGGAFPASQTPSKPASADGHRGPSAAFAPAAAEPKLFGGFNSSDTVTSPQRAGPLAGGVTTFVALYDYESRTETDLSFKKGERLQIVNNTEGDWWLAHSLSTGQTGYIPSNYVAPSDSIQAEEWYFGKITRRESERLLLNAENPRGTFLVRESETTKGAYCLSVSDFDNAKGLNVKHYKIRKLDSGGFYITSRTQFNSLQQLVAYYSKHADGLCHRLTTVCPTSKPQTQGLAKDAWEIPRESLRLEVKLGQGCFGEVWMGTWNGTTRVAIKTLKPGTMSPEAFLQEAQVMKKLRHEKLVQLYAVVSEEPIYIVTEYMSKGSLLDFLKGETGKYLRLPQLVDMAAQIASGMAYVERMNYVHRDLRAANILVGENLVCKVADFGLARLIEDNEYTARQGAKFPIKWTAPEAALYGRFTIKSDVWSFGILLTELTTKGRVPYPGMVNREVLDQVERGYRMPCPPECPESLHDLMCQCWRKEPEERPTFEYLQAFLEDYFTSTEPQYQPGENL
The following applies: kinase SRC; 1 uM in DMSO. In a few lines:
as §1

For test [4], the target named is T4, kinases of the scanMAX Kinase assay panel (Homo sapiens, UniProt P42336, Q546K).
T4 construct: purchased DiscoverX Co. (contract measurement) scanMAX Kinase assay panel
T4 sequence (P42336 whole entry Q546K): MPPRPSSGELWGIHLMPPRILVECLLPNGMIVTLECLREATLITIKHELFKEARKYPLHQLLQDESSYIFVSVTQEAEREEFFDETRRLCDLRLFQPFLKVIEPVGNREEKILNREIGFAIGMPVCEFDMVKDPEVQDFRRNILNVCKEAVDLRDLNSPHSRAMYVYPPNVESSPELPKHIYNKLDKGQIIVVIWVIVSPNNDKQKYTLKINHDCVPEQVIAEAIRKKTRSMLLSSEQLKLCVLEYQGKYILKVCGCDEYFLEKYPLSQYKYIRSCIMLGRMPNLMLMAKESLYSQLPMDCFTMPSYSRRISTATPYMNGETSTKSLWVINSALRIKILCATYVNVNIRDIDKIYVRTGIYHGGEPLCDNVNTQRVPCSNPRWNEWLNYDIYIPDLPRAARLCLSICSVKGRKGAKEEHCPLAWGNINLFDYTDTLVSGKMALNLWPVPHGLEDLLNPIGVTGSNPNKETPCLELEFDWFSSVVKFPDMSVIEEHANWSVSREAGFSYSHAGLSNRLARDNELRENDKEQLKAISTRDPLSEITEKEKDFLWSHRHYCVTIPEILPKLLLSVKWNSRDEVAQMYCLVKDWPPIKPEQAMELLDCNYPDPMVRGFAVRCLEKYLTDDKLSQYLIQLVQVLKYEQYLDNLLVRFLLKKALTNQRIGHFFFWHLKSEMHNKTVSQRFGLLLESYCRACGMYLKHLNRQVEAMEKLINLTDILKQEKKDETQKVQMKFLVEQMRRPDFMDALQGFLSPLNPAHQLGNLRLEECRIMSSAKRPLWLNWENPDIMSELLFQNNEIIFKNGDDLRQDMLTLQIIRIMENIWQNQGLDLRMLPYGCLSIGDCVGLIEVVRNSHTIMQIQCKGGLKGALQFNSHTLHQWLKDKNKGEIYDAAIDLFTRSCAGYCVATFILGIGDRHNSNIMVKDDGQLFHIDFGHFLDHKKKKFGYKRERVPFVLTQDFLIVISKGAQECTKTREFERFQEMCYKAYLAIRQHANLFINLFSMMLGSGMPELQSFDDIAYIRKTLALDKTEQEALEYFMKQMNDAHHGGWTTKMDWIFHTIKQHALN
The following applies: PIK3CA(Q546K); 1 uM. An outline of the steps:
as §1

Test [5] concerns the target T5, kinases of the scanMAX Kinase assay panel (Homo sapiens, UniProt Q05397).
T5 construct: purchased DiscoverX Co. (contract measurement) scanMAX Kinase assay panel
Conditions: FAK; 1 uM. In a few lines:
as §1

Test [6] deals with T6, kinases of the scanMAX Kinase assay panel (Homo sapiens, UniProt Q8IVH8).
T6 construct: purchased DiscoverX Co. (contract measurement) scanMAX Kinase assay panel
T6 sequence (Q8IVH8 1-894): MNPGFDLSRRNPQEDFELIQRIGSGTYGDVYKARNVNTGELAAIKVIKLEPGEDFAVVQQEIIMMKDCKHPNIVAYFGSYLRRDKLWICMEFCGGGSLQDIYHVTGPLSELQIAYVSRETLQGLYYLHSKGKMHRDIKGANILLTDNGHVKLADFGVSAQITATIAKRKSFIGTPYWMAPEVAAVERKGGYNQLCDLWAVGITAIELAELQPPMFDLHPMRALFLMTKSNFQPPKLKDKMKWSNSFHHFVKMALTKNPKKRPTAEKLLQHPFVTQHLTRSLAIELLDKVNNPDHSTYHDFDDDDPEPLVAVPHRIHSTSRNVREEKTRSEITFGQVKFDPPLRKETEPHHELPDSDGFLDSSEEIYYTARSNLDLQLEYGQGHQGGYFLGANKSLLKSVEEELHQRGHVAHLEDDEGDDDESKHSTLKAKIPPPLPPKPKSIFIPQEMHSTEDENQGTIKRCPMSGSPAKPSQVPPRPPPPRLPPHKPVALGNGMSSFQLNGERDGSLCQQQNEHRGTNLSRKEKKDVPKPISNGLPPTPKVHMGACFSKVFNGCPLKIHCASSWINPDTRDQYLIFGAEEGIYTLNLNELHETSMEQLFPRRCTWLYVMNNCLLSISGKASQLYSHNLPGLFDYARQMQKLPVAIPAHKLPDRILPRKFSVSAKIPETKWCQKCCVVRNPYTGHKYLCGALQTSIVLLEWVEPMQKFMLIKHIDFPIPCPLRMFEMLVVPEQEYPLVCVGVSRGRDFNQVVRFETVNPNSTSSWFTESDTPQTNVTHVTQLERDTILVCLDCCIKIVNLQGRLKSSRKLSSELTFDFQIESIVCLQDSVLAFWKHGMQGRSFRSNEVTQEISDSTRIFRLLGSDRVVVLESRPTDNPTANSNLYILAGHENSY
The following applies: MAP4K3; 1 uM. In a few lines: as §1

For test [7], the target named is T7, kinases of the scanMAX Kinase assay panel (Homo sapiens, UniProt Q8IWQ3).
T7 construct: purchased DiscoverX Co. (contract measurement) scanMAX Kinase assay panel
T7 sequence (Q8IWQ3 1-736): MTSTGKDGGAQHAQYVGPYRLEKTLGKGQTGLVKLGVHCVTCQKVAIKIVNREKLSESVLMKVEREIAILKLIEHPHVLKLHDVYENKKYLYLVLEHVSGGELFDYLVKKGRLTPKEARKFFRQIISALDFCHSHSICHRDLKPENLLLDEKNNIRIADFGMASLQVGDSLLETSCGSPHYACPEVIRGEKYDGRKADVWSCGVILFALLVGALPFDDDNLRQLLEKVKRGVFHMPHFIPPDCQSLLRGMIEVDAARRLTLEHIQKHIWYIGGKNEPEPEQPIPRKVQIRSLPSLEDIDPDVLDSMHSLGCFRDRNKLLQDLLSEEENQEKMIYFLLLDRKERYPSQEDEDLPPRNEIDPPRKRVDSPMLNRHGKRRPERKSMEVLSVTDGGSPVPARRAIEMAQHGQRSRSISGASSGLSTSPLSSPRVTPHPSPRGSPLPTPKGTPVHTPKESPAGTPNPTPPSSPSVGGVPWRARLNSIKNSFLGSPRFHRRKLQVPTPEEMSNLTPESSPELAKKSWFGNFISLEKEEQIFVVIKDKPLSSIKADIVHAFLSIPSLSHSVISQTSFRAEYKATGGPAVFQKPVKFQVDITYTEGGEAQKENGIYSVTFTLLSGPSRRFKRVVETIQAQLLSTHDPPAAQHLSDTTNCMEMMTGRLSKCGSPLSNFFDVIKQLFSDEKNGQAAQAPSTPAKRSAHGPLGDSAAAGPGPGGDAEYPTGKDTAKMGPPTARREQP
Conditions: BRSK2; 1 uM. In a few lines: as §1

In test [8] the target is T8, kinases of the scanMAX Kinase assay panel (Homo sapiens, UniProt Q8NI60).
T8 construct: purchased DiscoverX Co. (contract measurement) scanMAX Kinase assay panel
T8 sequence (Q8NI60 163-647): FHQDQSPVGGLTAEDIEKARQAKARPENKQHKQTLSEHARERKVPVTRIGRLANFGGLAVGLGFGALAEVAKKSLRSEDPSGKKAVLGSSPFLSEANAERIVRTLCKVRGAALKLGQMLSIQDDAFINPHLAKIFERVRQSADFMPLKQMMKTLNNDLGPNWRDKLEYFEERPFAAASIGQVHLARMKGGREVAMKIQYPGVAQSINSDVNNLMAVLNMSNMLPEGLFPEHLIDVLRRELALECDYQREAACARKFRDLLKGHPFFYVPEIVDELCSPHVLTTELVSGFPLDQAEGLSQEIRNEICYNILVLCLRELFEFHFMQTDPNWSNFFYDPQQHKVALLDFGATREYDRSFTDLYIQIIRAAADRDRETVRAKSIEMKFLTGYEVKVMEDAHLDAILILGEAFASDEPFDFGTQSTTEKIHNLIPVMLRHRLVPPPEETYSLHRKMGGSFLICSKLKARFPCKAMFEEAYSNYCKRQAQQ
Conditions: ADCK3; 1 uM. An outline of the steps: as §1

Test [9] concerns the target T9, kinases of the scanMAX Kinase assay panel (Homo sapiens, UniProt Q9BUB5).
T9 construct: purchased DiscoverX Co. (contract measurement) scanMAX Kinase assay panel
The following applies: MKNK1; 1 uM. An outline of the steps: as §1

For test [10], the target named is T10, kinases of the scanMAX Kinase assay panel (Homo sapiens, UniProt Q9HC98).
T10 construct: purchased DiscoverX Co. (contract measurement) scanMAX Kinase assay panel
T10 sequence (Q9HC98 whole entry): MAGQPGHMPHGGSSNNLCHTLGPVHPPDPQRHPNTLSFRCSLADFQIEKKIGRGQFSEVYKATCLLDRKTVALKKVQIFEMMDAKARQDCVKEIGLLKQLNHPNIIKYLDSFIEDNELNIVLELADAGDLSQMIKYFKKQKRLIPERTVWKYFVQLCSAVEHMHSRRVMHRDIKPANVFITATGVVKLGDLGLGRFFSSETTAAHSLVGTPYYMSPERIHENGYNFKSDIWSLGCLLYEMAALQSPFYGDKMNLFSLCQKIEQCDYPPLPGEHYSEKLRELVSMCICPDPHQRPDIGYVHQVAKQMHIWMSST
The following applies: NEK6; 1 uM. An outline of the steps:
as §1

For test [11], the target named is T11, kinases of the scanMAX Kinase assay panel (Homo sapiens, UniProt Q9NY57).
T11 construct: purchased DiscoverX Co. (contract measurement) scanMAX Kinase assay panel
T11 sequence (Q9NY57 whole entry): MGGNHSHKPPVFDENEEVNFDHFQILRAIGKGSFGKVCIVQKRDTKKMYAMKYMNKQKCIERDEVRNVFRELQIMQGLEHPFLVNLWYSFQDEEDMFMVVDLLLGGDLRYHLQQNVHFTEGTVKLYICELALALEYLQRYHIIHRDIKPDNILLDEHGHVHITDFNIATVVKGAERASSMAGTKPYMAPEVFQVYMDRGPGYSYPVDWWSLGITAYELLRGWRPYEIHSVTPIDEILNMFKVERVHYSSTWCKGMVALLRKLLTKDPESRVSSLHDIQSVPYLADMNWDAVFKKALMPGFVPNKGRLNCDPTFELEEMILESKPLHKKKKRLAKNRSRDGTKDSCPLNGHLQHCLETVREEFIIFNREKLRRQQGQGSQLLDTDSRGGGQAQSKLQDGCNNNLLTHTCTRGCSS
The following applies: kinase YANK2; 1 uM in DMSO. An outline of the steps:
as §1

In test [12] the target is T12, kinases of the scanMAX Kinase assay panel (Homo sapiens, UniProt Q9UPE1).
T12 construct: purchased DiscoverX Co. (contract measurement) scanMAX Kinase assay panel
T12 sequence (Q9UPE1 whole entry): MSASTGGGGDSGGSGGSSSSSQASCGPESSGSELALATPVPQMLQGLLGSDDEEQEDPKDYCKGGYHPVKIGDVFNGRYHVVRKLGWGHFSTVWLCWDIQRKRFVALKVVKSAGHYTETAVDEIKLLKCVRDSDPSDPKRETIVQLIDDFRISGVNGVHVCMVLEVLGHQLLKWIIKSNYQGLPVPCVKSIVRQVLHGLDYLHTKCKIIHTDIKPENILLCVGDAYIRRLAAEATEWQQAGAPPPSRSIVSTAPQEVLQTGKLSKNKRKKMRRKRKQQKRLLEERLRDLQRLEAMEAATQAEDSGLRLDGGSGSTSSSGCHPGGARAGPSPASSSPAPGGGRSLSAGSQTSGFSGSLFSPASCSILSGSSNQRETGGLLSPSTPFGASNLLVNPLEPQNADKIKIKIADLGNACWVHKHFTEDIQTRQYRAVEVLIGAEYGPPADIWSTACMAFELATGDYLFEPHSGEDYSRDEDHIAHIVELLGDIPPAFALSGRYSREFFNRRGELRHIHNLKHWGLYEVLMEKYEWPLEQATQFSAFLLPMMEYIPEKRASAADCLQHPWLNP
The following applies: kinase SRPK3; 1 uM in DMSO. In a few lines:
as §1

[13] abbreviates: kinase RPS6KA5(Kin.Dom.1-N-terminal), read-out: % control, RPS6KA5(Kin.Dom.1-N-terminal).
Setting [14] is: kinase RPS6KA5(Kin.Dom.2-C-terminal), read-out: % control, RPS6KA5(Kin.Dom.2-C-terminal).

T9 sequence (Q9BUB5 whole entry): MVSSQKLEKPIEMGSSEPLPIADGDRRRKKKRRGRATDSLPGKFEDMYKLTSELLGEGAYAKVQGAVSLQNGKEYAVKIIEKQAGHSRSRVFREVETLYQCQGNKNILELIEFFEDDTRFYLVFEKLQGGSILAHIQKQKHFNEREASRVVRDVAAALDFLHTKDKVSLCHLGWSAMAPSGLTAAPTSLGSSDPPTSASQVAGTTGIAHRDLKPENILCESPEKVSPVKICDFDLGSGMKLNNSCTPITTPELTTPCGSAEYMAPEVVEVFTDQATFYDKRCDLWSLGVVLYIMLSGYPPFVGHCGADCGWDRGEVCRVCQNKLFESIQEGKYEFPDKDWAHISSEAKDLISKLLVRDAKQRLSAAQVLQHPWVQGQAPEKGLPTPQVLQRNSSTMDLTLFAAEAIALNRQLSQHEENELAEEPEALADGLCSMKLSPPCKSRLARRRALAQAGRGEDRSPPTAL

With `CNc1nc(Nc2ccc(C(=O)N3CCOCC3)cc2OC)nc2[nH]cc(C#N)c12` [Example 1, 2-((2-methoxy-4-(morpholine-4-carbonyl)phenyl)amino)-4-(methylamino)-7H-pyrrolo[2,3-d]pyrimidine-5-carbonitrile], the remaining binding at 1 µM in test [1] (setting [13]) turned out to be 94%; in [1] (setting [14]) it was 12%; in test [2], 82%; in [3], 90%; in [4] it was 75%; in test [5], 55%. Moreover, the remaining binding at 1 µM in [6] amounted to 97%; in test [7], 89%; in [8], 94%; in test [9], 62%; in test [10], 95%; in test [11], 85%. Moreover, the remaining binding at 1 µM in test [12] was 93%.

Consider `CC1(Nc2nc(Nc3cnn([C@H]4CCN(C5COC5)C[C@@H]4F)c3Cl)nc3[nH]cc(C#N)c23)CC1` [Example 52, 2-((5-chloro-1-((3S,4S)-3-fluoro-1-(oxetane-3-yl)piperidine-4-yl)-1H-pyrazole-4-yl)amino)((1-methylcyclopropyl)amino)-7H-pyrrolo[2,3-d]pyrimidine-5-carbonitrile], for which the remaining binding at 1 µM in test [1] (setting [13]) turned out to be 100%; in test [1] (setting [14]) it was 24%; in [2] it was 31%; in [3], 4.6%; in test [4] it was 85%; in [5] it was 0.3%. Besides, the remaining binding at 1 µM stood at 3.3% in test [6]; 70% in test [7]; 98% in test [8]; 100% in test [9]; 93% in test [10]; 100% in test [11]. Further, in [12], the remaining binding at 1 µM worked out at 2.5%.

On to `CCNc1nc(Nc2ccc(C(=O)N3CCC(N4CCOCC4)CC3)cc2OC)nc2[nH]cc(C(F)(F)F)c12` [Example 104, (4-((4-(ethylamino)-5-(trifluoromethyl)-7H-pyrrolo[2,3-d]pyrimidine-2-yl)amino)-3-methoxyphenyl)(4-morpholinopiperidine-1-yl)methanone], for which the remaining binding at 1 µM in [1] (setting [13]) worked out at 100%; in [1] (setting [14]), 83%; in test [2] it was 100%; in [3] it was 100%; in test [4], 87%; in test [5], 3.8%. Further, the remaining binding at 1 µM in test [6], in test [7], in test [8], in test [9], in test [10] and in [11] was 100% throughout. Further, the remaining binding at 1 µM in test [12] worked out at 100%.
